# Patent publication US20240091115A1, “Oral Care Compositions and Methods of Use” (Colgate-Palmolive Company, priority 2019, published 2024)
# Columns and labels:
# mixed species biofilm = assay: Seahorse XFe Extracellular Flux Analyzer, bacterial metabolism (OCR/ECAR) in mixed species biofilm; format: cell-based; details: oxygen consumption rate
# Description: (§1) Samples with varying amounts of cannabidiol (CBD) are assessed for their effects on cellular metabolism with and without various source of zinc. Using the Seahorse XF^e Extracellular Flux Analyzer, biofilm samples are grown for 48 hrs. […] The biofilms are harvested for culture. Diluted biofilm and toothpaste slurry are loaded to each well. Glycolysis—Extracellular Acidification Rate (ECAR) and Mitochondrial Respiration—Oxygen Consumption Rate (OCR) is measured for 25-50 cycles (˜360 minutes). […] The “CBD Oil” is 5% CBD (by wt. of the CBD Oil) in Hemp seed oil.
# Where the “OCR” is oxygen consumption rate units as measured using the Seahorse XF^e Extracellular Flux Analyzer.: […]
# S. mutans biofilms = assay: Seahorse XFe Extracellular Flux Analyzer, bacterial metabolism (OCR/ECAR) in S. mutans biofilm; format: cell-based; details: CBD and arginine slurries
# Description: as §1
smiles,measurement,setting,value
"CC(O)C(=O)[O-].CC(O)C(=O)[O-].[Zn+2] (stereo not shown) [1.5% Zinc Lactate, Zinc Lactate]",Average (OCR) (p mole/min),"mixed species biofilm; Table 1, mixed biofilm, CBD and zinc lactate, untreated 25,669.50","21,900.63 p mole/min"
"[F][Sn][F] [0.2% by wt. Stannous Fluoride, Stannous Fluoride]",Average (OCR) (p mole/min),"mixed species biofilm; Table 3, mixed species biofilm, CBD and stannous fluoride slurries, untreated 11489.9",10440.7 p mole/min
"N=C(N)NCCC[C@H](N)C(=O)O [1% Arg, arginine]",OCR Value (p mole/min),"S. mutans biofilms; Table 4, oxygen consumption rate, untreated 1449.50",518.58 p mole/min
same,ECR Value (mpH/min),"S. mutans biofilms; Table 5, extracellular acidification rate, untreated 701.2",518.6 mpH/min
